The text below walks through data of US12275719B2, “Small molecule inhibitors of galectin-3” (BRISTOL-MYERS SQUIBB COMPANY, priority 2019, dated 2025).

This experiment deals with His-tagged recombinant human Gal-3 (hGal-3) (Homo sapiens, UniProt P17931). In words: Gal-3 HTRF assay (hGal-3 / B-ASF binding inhibition). As to the method:
ASSAY BUFFER Composition: 25 mM HEPES, 100 mM NaCl, 0.005% Tween 20, 0.05% BSA prepared in sterile water (all reagents from Sigma).
Positive Control: 100% DMSO (1 μL)+His-tagged hGal-3 (20 μL)+β-ASF (20 μL)+Anti-His Terbium Antibody (5 μL)+Strep d2 Antibody (5 μL).
Negative Control: 100% DMSO (1 μL)+His-tagged hGal-3 (20 μL)+Anti His Terbium Antibody (5 μL)+Strep d2 Aantibody (5 μL).
PROTOCOL: The Gal-3 assays were performed in 384 white Opti plates in three replicates at room temperature with gentle shaking at 250-300 rpm From the original stocks, […] working stock concentrations of His-tagged recombinant human Gal-3 (hGal-3) and that of B-ASF were prepared. From the working stock, 20 μL of hGal-3 (15 nM) and 20 μL B-ASF (15 nM) were added to the plates. In Negative Control, only hGal-3 was added. A concentration range of 50× working stocks were prepared for the compounds in 100% DMSO. Aliquots of 1 μL of the compounds were added to the wells and pre-incubated with 20 μL hGal-3 per well for 30 minutes Then 20 μL B-ASF were added and incubated for another 1 hour. To detect the signal, 5 μL (final conc. of 1.0 nM) terbium labelled Anti-His antibody was added and incubated for 30 min followed by adding 5 μL (final conc. of 20 nM) Streptavidin d2 and incubation for another 1 hour. The assay signal was detected using HTRF screen protocol (Excitation wavelength=340 nm, emission wavelength=615 nm/665 nm) on Envision 2104 Multilabel Reader. Data analysed using Toolset and Curve Master. Results are reported in the experimental section (IC50 in μM).
For orientation: TR-FRET usually uses a lanthanide donor and a delayed reading to cut background.

Sequence of His-tagged recombinant human Gal-3 (hGal-3) (P17931 whole entry): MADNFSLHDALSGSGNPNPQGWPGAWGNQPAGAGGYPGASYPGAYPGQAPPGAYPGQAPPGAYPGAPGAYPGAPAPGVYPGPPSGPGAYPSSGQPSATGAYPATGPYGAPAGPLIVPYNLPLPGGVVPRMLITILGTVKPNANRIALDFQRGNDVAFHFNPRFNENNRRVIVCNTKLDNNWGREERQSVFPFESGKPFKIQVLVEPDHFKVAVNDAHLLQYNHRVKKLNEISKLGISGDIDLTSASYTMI

One may read the IC50 as the midpoint of a concentration-inhibition curve. With `OC[C@H]1O[C@@H](c2nncn2-c2cc(Cl)ccc2OC(F)(F)F)[C@H](OCC(F)(F)F)[C@@H](n2cc(-c3ccc(Br)c(F)c3F)nn2)[C@H]1O` [Example 59], for the setting “table of Examples 30 to 65”, the half-inhibitory concentration (IC50) amounted to 57 nM.
`Cc1nc([C@@H]2O[C@H](CO)[C@H](O)[C@H](n3cc(-c4ccc(Cl)c(Cl)c4F)nn3)[C@H]2O)n(-c2cc(Cl)ccc2C(F)(F)F)n1` [Example 7]: for the setting “table of Examples 5 to 25”, the IC50 was determined as 6 nM.
As for `OC[C@H]1O[C@@H](c2nncn2-c2cc(Cl)ccc2C(F)(F)F)[C@H](OCC(F)(F)F)[C@@H](n2cc(-c3ccc(Br)c(F)c3F)nn2)[C@H]1O` [Example 58], under “table of Examples 30 to 65”, the IC50 turned out to be 14 nM.
Take `OC[C@H]1O[C@@H](c2nncn2-c2cc(Cl)ccc2OC(F)(F)F)[C@H](OCC(F)F)[C@@H](n2cc(-c3ccc(Br)c(F)c3F)nn2)[C@H]1O` [Example 57]: the IC50 (table of Examples 30 to 65) is 21 nM.
`OC[C@H]1O[C@@H](c2nncn2-c2cc(Cl)ccc2OC(F)(F)F)[C@H](O)[C@@H](n2cc(-c3ccc(Cl)c(F)c3F)nn2)[C@H]1O` [Example 51]: the IC50 (table of Examples 30 to 65) stood at 14 nM.
As for `OC[C@H]1O[C@@H](c2nncn2-c2cc(Cl)ccc2OC(F)(F)F)[C@H](OCC(F)(F)C(F)F)[C@@H](n2cc(-c3ccc(Br)c(F)c3F)nn2)[C@H]1O` [Example 61], the IC50 (table of Examples 30 to 65) was 49 nM.
For the compound `Cc1nc([C@@H]2O[C@H](CO)[C@H](O)[C@H](n3cc(-c4ccc(Br)c(F)c4F)nn3)[C@H]2O)n(-c2cc(Cl)ccc2OC(F)(F)F)n1` [Example 10], where the note is “table of Examples 5 to 25”, the IC50 turned out to be 11 nM.
In the case of `OC[C@H]1O[C@@H](c2nncn2-c2cc(Cl)ccc2C(F)(F)F)[C@H](OCC(F)(F)C(F)F)[C@@H](n2cc(-c3ccc(Br)c(F)c3)nn2)[C@H]1O` [Example 64], the IC50 (table of Examples 30 to 65) stood at 100 nM.
For the compound `OC[C@H]1O[C@@H](c2nncn2-c2cc(Cl)ccc2C(F)(F)F)[C@H](OCC(F)(F)F)[C@@H](n2cc(-c3ccc(Br)c(F)c3)nn2)[C@H]1O` [Example 63], the IC50 (table of Examples 30 to 65) amounted to 78 nM.
Consider `Cc1nc2ccc(-n3cnnc3[C@@H]3O[C@H](CO)[C@H](O)[C@H](n4cc(-c5ccc(Br)c(F)c5F)nn4)[C@H]3OCC(F)F)cc2s1` [Example 71], for which, where the note is “table of Examples 69 to 75”, the IC50 is 20 nM.
As for `Cc1nc([C@@H]2O[C@H](CO)[C@H](O)[C@H](n3cc(-c4ccc(Cl)c(F)c4F)nn3)[C@H]2O)n(-c2ccc3ncsc3c2)n1` [Example 20], the half-inhibitory concentration (IC50) (table of Examples 5 to 25) was 9 nM.
In the case of `OC[C@H]1O[C@@H](c2n[nH]c(=S)n2-c2cc(Cl)ccc2C(F)(F)F)[C@H](O)[C@@H](n2cc(-c3ccc(Br)c(F)c3F)nn2)[C@H]1O` (single isomer, unassigned) [Example 28], where the note is “Examples 26 to 29 and 66 to 68, HTRF, 15 nM hGal-3, 15 nM B-ASF”, the IC50 came out at 6.9 nM.
As to `CO[C@@H]1[C@@H](n2cc(-c3cc(F)c(Br)c(F)c3)nn2)[C@@H](O)[C@@H](CO)O[C@H]1c1ncnn1-c1cc(Cl)ccc1C(F)(F)F` [Example 31], the IC50 (table of Examples 30 to 65) came to 24 nM.
On to `Cc1nc2ccc(-n3cnnc3[C@@H]3O[C@H](CO)[C@H](O)[C@H](n4cc(-c5cc(F)c(Cl)c(Cl)c5)nn4)[C@H]3OCC(=O)O)cc2s1` [Example 75], for which the IC50 (table of Examples 69 to 75) worked out at 18 nM.
In the case of `CO[C@@H]1[C@@H](n2cc(-c3cc(F)c(Cl)c(Cl)c3)nn2)[C@@H](O)[C@@H](CO)O[C@H]1c1nncn1-c1cc(Cl)ccc1C(F)(F)F` [Example 36], the IC50 (table of Examples 30 to 65) was found to be 35 nM.
`CNCCN(C)C(=O)CO[C@@H]1[C@@H](n2cc(-c3cc(F)c(Cl)c(F)c3)nn2)[C@@H](O)[C@@H](CO)O[C@H]1c1nncn1-c1ccc2nc(C)sc2c1` [Example 73]: under “table of Examples 69 to 75”, the IC50 was determined as 54 nM.
As to `Cc1nc([C@@H]2O[C@H](CO)[C@H](O)[C@H](n3cc(-c4ccc5ccccc5c4F)nn3)[C@H]2O)n(-c2cc(Cl)ccc2C(F)(F)F)n1` [Example 6], the IC50 (table of Examples 5 to 25) was 62 nM.
Turning to `CO[C@@H]1[C@@H](n2cc(-c3ccc(Br)c(F)c3F)nn2)[C@@H](O)[C@@H](CO)O[C@H]1c1nncn1-c1cc(Cl)ccc1C(F)(F)F` [Example 35], under “table of Examples 30 to 65”, the IC50 was 9.3 nM.
On the same count and under the same terms, the figure for `OC[C@H]1O[C@@H](c2nncn2-c2cc(Cl)ccc2OC(F)(F)F)[C@H](OCC(F)F)[C@@H](n2cc(-c3ccc(Cl)c(F)c3F)nn2)[C@H]1O` [Example 53] is 19 nM.
In the case of `CO[C@@H]1[C@@H](n2cc(-c3ccc(Br)c(F)c3F)nn2)[C@@H](O)[C@@H](CO)O[C@H]1c1nncn1-c1cc(Cl)ccc1OC(F)(F)F` [Example 48], the IC50 (table of Examples 30 to 65) is 14 nM.
Regarding `Cc1nc([C@@H]2O[C@H](CO)[C@H](O)[C@H](n3cc(-c4ccc(Br)c(F)c4F)nn3)[C@H]2O)n(-c2ccc3ncsc3c2)n1` [Example 1, (2S,3R,4R,5R,6R)-2-(1-(Benzo[d]thiazol-6-yl)-3-methyl-1H-1,2,4-triazol-5-yl)-4-(4-(4-bromo-2,3-difluorophenyl)-1H-1,2,3-triazol-1-yl)-6-(hydroxymethyl)tetrahydro-2H-pyran-3,5-diol], the IC50 (text of Examples 1 to 4, HTRF, 15 nM hGal-3, 15 nM B-ASF) was 7 nM.
As for `OC[C@H]1O[C@@H](c2nncn2-c2cc(Cl)ccc2C(F)(F)F)[C@H](OCC(F)F)[C@@H](n2cc(-c3ccc(Cl)c(F)c3F)nn2)[C@H]1O` [Example 54], the IC50 (table of Examples 30 to 65) stood at 12 nM.
Take `Cc1nc([C@@H]2O[C@H](CO)[C@H](O)[C@H](n3cc(-c4ccc(Br)c(F)c4F)nn3)[C@H]2O)n(-c2cc(Cl)ccc2C2CC2)n1` [Example 23]: the IC50 (table of Examples 5 to 25) was 20 nM.
On to `Cc1nc([C@@H]2O[C@H](CO)[C@H](O)[C@H](n3cc(-c4ccc(Br)cc4F)nn3)[C@H]2O)n(-c2cc(Cl)ccc2C(F)(F)F)n1` [Example 12], for which the IC50 (table of Examples 5 to 25) amounted to 56 nM.
As for `CO[C@@H]1[C@@H](n2cc(-c3ccc(Br)c(F)c3)nn2)[C@@H](O)[C@@H](CO)O[C@H]1c1ncnn1-c1cc(Cl)ccc1C(F)(F)F` [Example 30], the IC50 (table of Examples 30 to 65) turned out to be 22 nM.
Take `Cc1nc2ccc(-n3cnnc3[C@@H]3O[C@H](CO)[C@H](O)[C@H](n4cc(-c5cc(F)c(Cl)c(Cl)c5)nn4)[C@H]3O)cc2s1` [Example 74]: the IC50 (table of Examples 69 to 75) was 35 nM.
Turning to `OC[C@H]1O[C@@H](c2nncn2-c2cc(Cl)ccc2C(F)(F)F)[C@H](OCC(F)(F)C(F)F)[C@@H](n2cc(-c3ccc(Br)c(F)c3F)nn2)[C@H]1O` [Example 65], for the setting “table of Examples 30 to 65”, the IC50 amounted to 18 nM.
Take `Cc1nc2ccc(-n3cnnc3[C@@H]3O[C@H](CO)[C@H](O)[C@H](n4cc(-c5cc(F)c(Cl)c(F)c5)nn4)[C@H]3OCC(=O)O)cc2s1` [Example 72]: the IC50 (table of Examples 69 to 75) is 16 nM.
Regarding `OC[C@H]1O[C@@H](c2nncn2-c2cc(Cl)ccc2C(F)(F)F)[C@H](OCC(F)F)[C@@H](n2cc(-c3ccc(Br)c(F)c3)nn2)[C@H]1O` [Example 62], the IC50 (table of Examples 30 to 65) came out at 40 nM.
